The record followed here is patent publication US8853203B2, “Diazepinone derivatives” (Novartis AG, priority 2012, dated 2014).

One assay concerns the target human mGluR1 (Homo sapiens (Human), UniProt Q13255). Put plainly: mGluR1 antagonism, L-glutamate induced intracellular calcium increase (FLIPR) in CHO cells stably expressing human mGluR1. The class given is cell-based. As to conditions: for IC50: L-glutamate induced intracellular calcium, CHO cells expressing human mGluR1, FLIPR; for inhibition at 10 µM: CHO. On the technique in general: A change in cytosolic calcium serves as a functional read-out for many receptors and channels.

In a further assay the target is human mGluR5a receptors (Homo sapiens (Human), UniProt P41594). Put plainly: inhibition of glutamate-induced elevation of intracellular calcium in L(tk-) cells expressing human mGluR5a. The class given is cell-based. As to conditions: for IC50: glutamate-induced intracellular calcium elevation, L(tk-) cells expressing human mGluR5a, read-out: mGluR5 IC50. An outline of the steps:
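Compounds tested for inhibition of the glutamate-induced rise in intracellular calcium concentration in L(tk-) cells stably expressing human mGluR5a.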

Each structure is given as a SMILES string.

human mGluR5a receptors, sequence (P41594 other isoform, or with tags, fused parts or gaps): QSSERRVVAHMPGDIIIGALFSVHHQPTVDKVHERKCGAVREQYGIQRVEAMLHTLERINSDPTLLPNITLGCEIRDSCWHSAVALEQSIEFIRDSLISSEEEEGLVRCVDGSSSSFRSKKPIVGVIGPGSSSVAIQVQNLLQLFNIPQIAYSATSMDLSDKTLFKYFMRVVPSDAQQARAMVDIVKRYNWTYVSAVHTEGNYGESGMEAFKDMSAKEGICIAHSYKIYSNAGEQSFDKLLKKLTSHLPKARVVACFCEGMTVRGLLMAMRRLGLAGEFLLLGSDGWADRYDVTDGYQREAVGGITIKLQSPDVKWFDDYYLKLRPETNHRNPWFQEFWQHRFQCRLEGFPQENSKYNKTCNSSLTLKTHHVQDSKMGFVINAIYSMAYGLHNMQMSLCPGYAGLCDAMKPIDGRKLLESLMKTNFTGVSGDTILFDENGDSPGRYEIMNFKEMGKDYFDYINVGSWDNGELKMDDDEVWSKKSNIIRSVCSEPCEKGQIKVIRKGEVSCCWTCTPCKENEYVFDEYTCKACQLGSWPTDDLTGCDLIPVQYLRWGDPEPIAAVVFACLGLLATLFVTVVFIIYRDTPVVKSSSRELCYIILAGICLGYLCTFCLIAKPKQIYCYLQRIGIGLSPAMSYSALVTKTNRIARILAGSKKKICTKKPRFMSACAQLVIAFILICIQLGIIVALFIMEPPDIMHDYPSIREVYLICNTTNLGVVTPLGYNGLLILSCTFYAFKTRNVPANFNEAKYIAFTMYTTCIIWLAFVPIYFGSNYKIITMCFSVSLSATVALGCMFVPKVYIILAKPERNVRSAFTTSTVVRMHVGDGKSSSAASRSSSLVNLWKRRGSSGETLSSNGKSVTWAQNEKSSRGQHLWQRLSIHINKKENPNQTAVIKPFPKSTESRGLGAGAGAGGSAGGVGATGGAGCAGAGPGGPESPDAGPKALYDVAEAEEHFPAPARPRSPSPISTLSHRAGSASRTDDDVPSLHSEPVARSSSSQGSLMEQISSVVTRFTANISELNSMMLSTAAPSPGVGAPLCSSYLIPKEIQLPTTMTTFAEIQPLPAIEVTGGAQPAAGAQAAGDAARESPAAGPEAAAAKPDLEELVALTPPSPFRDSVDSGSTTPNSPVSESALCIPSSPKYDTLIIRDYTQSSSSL
human mGluR1, sequence (Q13255 19-1194): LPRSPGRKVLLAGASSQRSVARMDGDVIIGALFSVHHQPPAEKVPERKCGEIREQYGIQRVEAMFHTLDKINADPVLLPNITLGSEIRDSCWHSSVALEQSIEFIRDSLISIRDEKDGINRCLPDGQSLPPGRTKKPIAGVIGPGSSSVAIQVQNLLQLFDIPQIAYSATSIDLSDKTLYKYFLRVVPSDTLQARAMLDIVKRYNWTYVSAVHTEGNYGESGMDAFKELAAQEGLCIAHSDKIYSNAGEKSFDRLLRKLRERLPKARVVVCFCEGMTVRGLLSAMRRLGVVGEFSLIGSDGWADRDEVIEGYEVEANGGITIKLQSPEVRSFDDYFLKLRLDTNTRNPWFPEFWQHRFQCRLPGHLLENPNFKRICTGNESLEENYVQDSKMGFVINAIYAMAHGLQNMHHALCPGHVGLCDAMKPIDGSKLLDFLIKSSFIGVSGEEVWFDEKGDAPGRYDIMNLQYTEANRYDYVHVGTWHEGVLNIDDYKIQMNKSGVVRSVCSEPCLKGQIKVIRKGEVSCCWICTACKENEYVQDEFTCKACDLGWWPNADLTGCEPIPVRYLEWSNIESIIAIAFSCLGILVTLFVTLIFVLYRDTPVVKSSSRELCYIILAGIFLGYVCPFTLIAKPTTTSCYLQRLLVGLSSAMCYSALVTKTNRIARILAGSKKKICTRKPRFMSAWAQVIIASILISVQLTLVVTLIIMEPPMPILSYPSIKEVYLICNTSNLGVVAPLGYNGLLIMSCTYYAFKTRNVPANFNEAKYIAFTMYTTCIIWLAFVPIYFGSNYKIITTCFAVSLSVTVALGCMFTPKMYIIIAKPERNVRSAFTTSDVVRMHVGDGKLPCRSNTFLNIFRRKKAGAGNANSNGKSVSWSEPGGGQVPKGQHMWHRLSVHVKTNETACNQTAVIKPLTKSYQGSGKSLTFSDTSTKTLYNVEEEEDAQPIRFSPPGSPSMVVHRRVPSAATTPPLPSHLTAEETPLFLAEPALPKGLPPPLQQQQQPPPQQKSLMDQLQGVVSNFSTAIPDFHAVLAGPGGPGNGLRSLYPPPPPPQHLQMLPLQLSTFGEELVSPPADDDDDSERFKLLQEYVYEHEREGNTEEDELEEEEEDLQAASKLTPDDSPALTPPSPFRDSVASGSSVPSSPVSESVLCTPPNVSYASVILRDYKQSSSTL

On to `O=C1CN=C(n2cnc(C(F)(F)F)c2)C=C2c3cccc(C4CC4)c3CCN12` [Example 123e, 9-cyclopropyl-2-(4-(trifluoromethyl)-1H-imidazol-1-yl)-7,8-dihydro-[1,4]diazepino[7,1-a]isoquinolin-5(4H)-one], for which the concentration for half-maximal inhibition (IC50) (as a rule, the concentration needed to halve the response being measured) came out at 1640 nM on human mGluR1 and 56 nM on human mGluR5a receptors.

With `COCc1cn(C2=NCC(=O)N3CCc4c(cccc4-c4ncc(C)s4)C3=C2)cn1` [Example 77], the inhibition (in general, the change of the read-out against control, counted positive when it falls) at 10 µM on human mGluR1 amounted to 73%. For the same compound, the IC50 on human mGluR5a receptors was 32 nM.

For `O=C1CN=C(n2cnc(C3CC3)n2)C=C2c3cccc(C4CC4)c3CCN12` [Example 123c, 9-cyclopropyl-2-(3-cyclopropyl-1H-1,2,4-triazol-1-yl)-7,8-dihydro-[1,4]diazepino[7,1-a]isoquinolin-5(4H)-one], the figures for the IC50 on human mGluR1 and on human mGluR5a receptors were 226 nM and 8 nM, respectively.

As to `Cc1cc(-c2cccc3c2CCN2C(=O)CN=C(n4cnc(C5CC5)c4)C=C32)sn1` [Example 103, 2-(4-cyclopropyl-1H-imidazol-1-yl)-9-(3-methylisothiazol-5-yl)-7,8-dihydro-[1,4]diazepino[7,1-a]isoquinolin-5(4H)-one], the IC50 is above 10000 nM on human mGluR1 and 18 nM on human mGluR5a receptors.

Regarding `COCCc1cn(C2=NCC(=O)N3CCc4c(cccc4-c4cscn4)C3=C2)cn1` [Example 76, 2-(4-(2-methoxyethyl)-1H-imidazol-1-yl)-9-(thiazol-4-yl)-7,8-dihydro-[1,4]diazepino[7,1-a]isoquinolin-5(4H)-one], the results for the IC50 on human mGluR1 and at human mGluR5a receptors were 4200 nM and 34 nM, respectively.

In the case of `COc1cccc2c1CCN1C(=O)CN=C(c3cccs3)C=C21` [Example 5, 9-methoxy-2-(thiophen-2-yl)-7,8-dihydro-[1,4]diazepino[7,1-a]isoquinolin-5(4H)-one], the IC50 on human mGluR1 turned out to be 15 nM; on human mGluR5a receptors, 44 nM.

Take `C=C(C)c1cccc2c1CCN1C(=O)CN=C(n3cnc(COC)c3)C=C21` [Example 121, 2-(4-(methoxymethyl)-1H-imidazol-1-yl)-9-(prop-1-en-2-yl)-7,8-dihydro-[1,4]diazepino[7,1-a]isoquinolin-5(4H)-one]: the IC50 was 490 nM on human mGluR1 and 14 nM on human mGluR5a receptors.

As for `Cc1cn(C2=NCC(=O)N3CCc4c(cccc4-c4cncnc4)C3=C2)cn1` [Example 78, 2-(4-methyl-1H-imidazol-1-yl)-9-(pyrimidin-5-yl)-7,8-dihydro-[1,4]diazepino[7,1-a]isoquinolin-5(4H)-one], the values for the IC50 on human mGluR1 and at human mGluR5a receptors were above 10000 nM and 540 nM, respectively.

Regarding `O=C1CN=C(n2cnc(CCO)c2)C=C2c3cccc(C4CC4)c3CCN12` [Example 128, 9-cyclopropyl-2-(4-(2-hydroxyethyl)-1H-imidazol-1-yl)-7,8-dihydro-[1,4]diazepino[7,1-a]isoquinolin-5(4H)-one], the IC50 stood at 41 nM on human mGluR1 and 1 nM at human mGluR5a receptors.

With `Cc1cn(C2=NCC(=O)N3CCc4c(cccc4-c4coc(C)n4)C3=C2)cn1` [Example 108c, 2-(4-methyl-1H-imidazol-1-yl)-9-(2-methyloxazol-4-yl)-7,8-dihydro-[1,4]diazepino[7,1-a]isoquinolin-5(4H)-one], the IC50 is above 10000 nM at human mGluR1 and 115 nM on human mGluR5a receptors.

`C#Cc1cccc2c1CCN1C(=O)CN=C(c3cccs3)C=C21` [Example 38, 9-ethynyl-2-(thiophen-2-yl)-7,8-dihydro-[1,4]diazepino[7,1-a]isoquinolin-5(4H)-one]: the values for the IC50 at human mGluR1 and on human mGluR5a receptors were 22 nM and 50 nM, respectively.

As for `COC(=O)c1cn(C2=NCC(=O)N3CCc4c(I)cccc4C3=C2)cn1` [Example 66, methyl 1-(9-iodo-5-oxo-4,5,7,8-tetrahydro-[1,4]diazepino[7,1-a]isoquinolin-2-yl)-1H-imidazole-4-carboxylate], the values for the IC50 on human mGluR1 and at human mGluR5a receptors were above 10000 nM and 780 nM, respectively.

On to `Cc1cn(C2=NCC(=O)N3CCc4c(cccc4-c4cnccn4)C3=C2)cn1` [Example 106b, 2-(4-methyl-1H-imidazol-1-yl)-9-(pyrazin-2-yl)-7,8-dihydro-[1,4]diazepino[7,1-a]isoquinolin-5(4H)-one], for which the IC50 on human mGluR1 stood at 7330 nM; on human mGluR5a receptors, 168 nM.

`O=C1CN=C(n2cnc(Cl)c2)C=C2c3cccc(-c4cncc(F)c4)c3CCN12` [Example 83, 2-(4-chloro-1H-imidazol-1-yl)-9-(5-fluoropyridin-3-yl)-7,8-dihydro-[1,4]diazepino[7,1-a]isoquinolin-5(4H)-one]: the IC50 is above 10000 nM at human mGluR1 and 205 nM at human mGluR5a receptors.

Consider `O=C1CN=C(n2cnc(C3CC3)n2)C=C2c3cccc(-c4nccs4)c3CCN12` [Example 88g, 2-(3-cyclopropyl-1H-1,2,4-triazol-1-yl)-9-(thiazol-2-yl)-7,8-dihydro-[1,4]diazepino[7,1-a]isoquinolin-5(4H)-one], for which the IC50 amounted to 761 nM at human mGluR1 and 17 nM at human mGluR5a receptors.

Turning to `COC(C)c1cccc2c1CCN1C(=O)CN=C(c3ccn(C)n3)C=C21` (stereo not shown) [Example 47, 9-(1-methoxyethyl)-2-(1-methyl-1H-pyrazol-3-yl)-7,8-dihydro-[1,4]diazepino[7,1-a]isoquinolin-5(4H)-one], the 50% inhibitory concentration (IC50) amounted to 3400 nM on human mGluR1 and 71 nM on human mGluR5a receptors.

Turning to `CCOc1cccc(C2=NCC(=O)N3C(=C2)c2cccc(OC)c2CC3C)c1` (stereo not shown) [Example 15, 2-(3-ethoxyphenyl)-9-methoxy-7-methyl-7,8-dihydro-[1,4]diazepino[7,1-a]isoquinolin-5(4H)-one], the inhibition at 10 µM on human mGluR1 came to 44%; on human mGluR5a receptors (LTK, read-out: mGluR5 % inhibition at 10 μM) it was 42%.

In the case of `O=C1CN=C(n2cnc(-c3ccno3)c2)C=C2c3cccc(C4CC4)c3CCN12` [Example 123b, 9-cyclopropyl-2-(4-(isoxazol-5-yl)-1H-imidazol-1-yl)-7,8-dihydro-[1,4]diazepino[7,1-a]isoquinolin-5(4H)-one], the IC50 on human mGluR1 is 2340 nM; on human mGluR5a receptors, 1 nM.

Regarding `CCc1cccc2c1CCN1C(=O)CN=C(c3cccc(OC)c3)C=C21` [Example 37, 9-ethyl-2-(3-methoxyphenyl)-7,8-dihydro-[1,4]diazepino[7,1-a]isoquinolin-5(4H)-one], the IC50 stood at 2200 nM on human mGluR1 and 77 nM at human mGluR5a receptors.

Consider `COCc1ncn(C2=NCC(=O)N3CCc4c(ccc(F)c4C4CC4)C3=C2)n1` [Example 99p, 9-cyclopropyl-10-fluoro-2-(3-(methoxymethyl)-1H-1,2,4-triazol-1-yl)-7,8-dihydro-[1,4]diazepino[7,1-a]isoquinolin-5(4H)-one], for which the values for the concentration for half-maximal inhibition (IC50) at human mGluR1 and on human mGluR5a receptors were 814 nM and 2 nM, respectively.

With `O=C1CN=C(n2cnc(C3CC3)c2)C=C2c3cccc(-c4ccc(F)nc4F)c3CCN12` [Example 99, 2-(4-cyclopropyl-1H-imidazol-1-yl)-9-(2,6-difluoropyridin-3-yl)-7,8-dihydro-[1,4]diazepino[7,1-a]isoquinolin-5(4H)-one], the figures for the IC50 at human mGluR1 and at human mGluR5a receptors were above 2000 nM and 83 nM, respectively.

Take `O=C1CN=C(n2cnc(C3CC3)c2)C=C2c3cccc(-c4ncco4)c3CCN12` [Example 104, 2-(4-cyclopropyl-1H-imidazol-1-yl)-9-(oxazol-2-yl)-7,8-dihydro-[1,4]diazepino[7,1-a]isoquinolin-5(4H)-one]: the results for the IC50 at human mGluR1 and at human mGluR5a receptors were 1300 nM and 7 nM, respectively.

For the compound `COc1cccc(C2=NCC(=O)N3CCc4c(C(C)=O)cccc4C3=C2)c1` [Example 48, 9-acetyl-2-(3-methoxyphenyl)-7,8-dihydro-[1,4]diazepino[7,1-a]isoquinolin-5(4H)-one], the IC50 stood at 2300 nM at human mGluR1 and 35 nM on human mGluR5a receptors.
